Laboratory results from the supplement of paper PMC10733146.

What was measured:
Experiment in all cases: viability relative to DMSO control (fraction); higher = less drug effect (more viable cells)
Settings in all cases: 48 h
[1] = tested on: primary AML patient cells (S055)
In short: (§1)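 Viability was measured as CellTiter-Glo luminescence relative to the median of 16 inner DMSO wells. Primary mononuclear tumour cells, fresh or cryopreserved, were Ficoll-isolated from blood or bone marrow or taken from processed lymph node. They were seeded at 4 × 10^4 cells per well into 384-well plates holding pre-plated compounds at five concentrations, one well each, and kept in RPMI-1640 with penicillin/streptomycin, L-glutamine and human serum at 37 °C and 5% CO2 for 48 h.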

[2] = tested on: primary AML patient cells (S006)
In short: as §1

[3] = tested on: primary MCL patient cells (S041)
In short: as §1

[4] = tested on: primary DLBCL patient cells (S082)
In short: as §1

[5] = tested on: primary AML patient cells (S009)
In short: as §1

[6] = tested on: primary ALL patient cells (S088)
In short: as §1

[7] = tested on: primary AML patient cells (S021)
In short: as §1

[8] = tested on: primary AML patient cells (S081)
In short: as §1

[9] = tested on: primary AML patient cells (S011)
In short: as §1

[10] = tested on: primary B-PLL patient cells (S016)
In short: as §1

[11] = tested on: primary T-PLL patient cells (S008)
In short: as §1

[12] = tested on: primary AML patient cells (S060)
In short: as §1

[13] = tested on: primary MCL patient cells (S063)
In short: as §1

[14] = tested on: primary FL patient cells (S087)
In short: as §1

For `Nc1ncn([C@@H]2O[C@H](CO)[C@@H](O)[C@H]2O)c(=O)n1` [Azacytidine (Vidaza)], the viability ([1]; 0.032 µM) was 1.04, the viability ([1]; 0.16 µM) was 1.05 and the viability ([1]; 0.8 µM) was 0.806. It also gave a viability ([1]; 4 µM) of 0.233, a viability ([1]; 20 µM) of 0.0906 and a viability ([2]; 0.032 µM) of 1.07. It also gave a viability ([2]; 0.16 µM) of 0.973, a viability ([2]; 0.8 µM) of 0.426 and a viability ([2]; 4 µM) of 0.0789. It also gave a viability ([2]; 20 µM) of 0.0614, a viability ([3]; 0.032 µM) of 1.04 and a viability ([3]; 0.16 µM) of 1.03. For the same molecule, the viability ([3]; 0.8 µM) was 0.812, the viability ([3]; 4 µM) was 0.151 and the viability ([3]; 20 µM) was 0.0515. The viability ([4]; 0.032 µM) was 0.969, the viability ([4]; 0.16 µM) was 1.08 and the viability ([4]; 0.8 µM) was 1.07. For the same molecule, the viability ([4]; 4 µM) was 1.04, the viability ([4]; 20 µM) was 0.26 and the viability ([5]; 0.032 µM) was 0.943. The viability ([5]; 0.16 µM) was 0.905, the viability ([5]; 0.8 µM) was 0.916 and the viability ([5]; 4 µM) was 0.695. For the same molecule, the viability ([5]; 20 µM) was 0.468, the viability ([6]; 0.032 µM) was 0.958 and the viability ([6]; 0.16 µM) was 1.06. For the same molecule, the viability ([6]; 0.8 µM) was 0.934, the viability ([6]; 4 µM) was 0.552 and the viability ([6]; 20 µM) was 0.233. The viability ([7]; 0.032 µM) was 0.982, the viability ([7]; 0.16 µM) was 1.17 and the viability ([7]; 0.8 µM) was 0.936. It also gave a viability ([7]; 4 µM) of 0.501, a viability ([7]; 20 µM) of 0.31 and a viability ([8]; 0.032 µM) of 0.955. It also gave a viability ([8]; 0.16 µM) of 1.08, a viability ([8]; 0.8 µM) of 1.04 and a viability ([8]; 4 µM) of 0.951. It also gave a viability ([8]; 20 µM) of 0.832, a viability ([9]; 0.032 µM) of 1.05 and a viability ([9]; 0.16 µM) of 1.29. The viability ([9]; 0.8 µM) was 0.811, the viability ([9]; 4 µM) was 0.32 and the viability ([9]; 20 µM) was 0.134. For the same molecule, the viability ([10]; 0.032 µM) was 1.03, the viability ([10]; 0.16 µM) was 1.06 and the viability ([10]; 0.8 µM) was 0.912. For the same molecule, the viability ([10]; 4 µM) was 0.142, the viability ([10]; 20 µM) was 0.0474 and the viability ([11]; 0.032 µM) was 0.965. The viability ([11]; 0.16 µM) was 1.02, the viability ([11]; 0.8 µM) was 0.988 and the viability ([11]; 4 µM) was 0.704. For the same molecule, the viability ([11]; 20 µM) was 0.289, the viability ([12]; 0.032 µM) was 1 and the viability ([12]; 0.16 µM) was 1.02. The viability ([12]; 0.8 µM) was 1.02, the viability ([12]; 4 µM) was 1.02 and the viability ([12]; 20 µM) was 0.923. The viability ([13]; 0.032 µM) was 1.04, the viability ([13]; 0.16 µM) was 1.07 and the viability ([13]; 0.8 µM) was 1.03. The viability ([13]; 4 µM) was 0.839, the viability ([13]; 20 µM) was 0.173 and the viability ([14]; 0.032 µM) was 1.1. The viability ([14]; 0.16 µM) was 1.06, the viability ([14]; 0.8 µM) was 0.997 and the viability ([14]; 4 µM) was 0.906. It also gave a viability ([14]; 20 µM) of 0.678.

Molecule `CC1(COc2ccc3c(c2)ncn3-c2ccc3cccc(N4CCC(N)CC4)c3n2)COC1` [Crenolanib] has a viability ([1]; 0.016 µM) of 1.12, a viability ([1]; 0.08 µM) of 1.08 and a viability ([1]; 0.4 µM) of 1.11. For the same molecule, the viability ([1]; 2 µM) was 1.12, the viability ([1]; 10 µM) was 0.381 and the viability ([2]; 0.016 µM) was 0.559. The viability ([2]; 0.08 µM) was 0.649, the viability ([2]; 0.4 µM) was 0.889 and the viability ([2]; 2 µM) was 0.977. It also gave a viability ([2]; 10 µM) of 0.333, a viability ([3]; 0.016 µM) of 1.08 and a viability ([3]; 0.08 µM) of 1.07. For the same molecule, the viability ([3]; 0.4 µM) was 0.983, the viability ([3]; 2 µM) was 0.447 and the viability ([3]; 10 µM) was 0.0254. It also gave a viability ([4]; 0.016 µM) of 1, a viability ([4]; 0.08 µM) of 1.12 and a viability ([4]; 0.4 µM) of 1.07. It also gave a viability ([4]; 2 µM) of 0.624, a viability ([4]; 10 µM) of 0.0262 and a viability ([5]; 0.016 µM) of 0.926. It also gave a viability ([5]; 0.08 µM) of 0.979, a viability ([5]; 0.4 µM) of 0.921 and a viability ([5]; 2 µM) of 2.2. It also gave a viability ([5]; 10 µM) of 0.301, a viability ([6]; 0.016 µM) of 0.695 and a viability ([6]; 0.08 µM) of 0.674. The viability ([6]; 0.4 µM) was 0.584, the viability ([6]; 2 µM) was 0.439 and the viability ([6]; 10 µM) was 0.033. For the same molecule, the viability ([7]; 0.016 µM) was 1.04, the viability ([7]; 0.08 µM) was 1.15 and the viability ([7]; 0.4 µM) was 1.17. For the same molecule, the viability ([7]; 2 µM) was 0.984, the viability ([7]; 10 µM) was 0.453 and the viability ([8]; 0.016 µM) was 0.948. For the same molecule, the viability ([8]; 0.08 µM) was 1.09, the viability ([8]; 0.4 µM) was 0.953 and the viability ([8]; 2 µM) was 1.07. The viability ([8]; 10 µM) was 0.0325, the viability ([9]; 0.016 µM) was 1.14 and the viability ([9]; 0.08 µM) was 0.997. The viability ([9]; 0.4 µM) was 1.02, the viability ([9]; 2 µM) was 0.824 and the viability ([9]; 10 µM) was 0.0337. It also gave a viability ([10]; 0.016 µM) of 1.04, a viability ([10]; 0.08 µM) of 1.24 and a viability ([10]; 0.4 µM) of 0.794. For the same molecule, the viability ([10]; 2 µM) was 0.553, the viability ([10]; 10 µM) was 0.0382 and the viability ([11]; 0.016 µM) was 0.989. The viability ([11]; 0.08 µM) was 1.04, the viability ([11]; 0.4 µM) was 1.06 and the viability ([11]; 2 µM) was 1.07. For the same molecule, the viability ([11]; 10 µM) was 0.107, the viability ([12]; 0.016 µM) was 1.12 and the viability ([12]; 0.08 µM) was 1.1. The viability ([12]; 0.4 µM) was 1.05, the viability ([12]; 2 µM) was 1.02 and the viability ([12]; 10 µM) was 0.0351. It also gave a viability ([13]; 0.016 µM) of 1.08, a viability ([13]; 0.08 µM) of 1.13 and a viability ([13]; 0.4 µM) of 0.958. It also gave a viability ([13]; 2 µM) of 0.83, a viability ([13]; 10 µM) of 0.0336 and a viability ([14]; 0.016 µM) of 1.02. The viability ([14]; 0.08 µM) was 0.971, the viability ([14]; 0.4 µM) was 1 and the viability ([14]; 2 µM) was 0.847. It also gave a viability ([14]; 10 µM) of 0.357.
